From patent EP0838225A2, “Aqueous local anesthetic solution” (Hiji, Yasutake, priority 1996, dated 1998)

Assays:
[1] = Turbidity and clearness of local anesthetic solutions from absorbance at 620 nm (Experimental Example 1); format: physicochemical; conditions: for OD (620 nm): absorbance at wavelength of 620 nm, CD added at equimolar concentration, pH as in label; for clearness (%) / turbidity (%): calculated from absorbance at 620 nm
Experimental: The turbidity and clearness of each inclusion compound solution were calculated from the absorbances thus obtained. […] In the same manner as above, OD (620 nm) was determined with respect to the obtained inclusion compound solution of each local anesthetic in cyclodextrin or a derivative thereof, and solutions of each local anesthetic. The turbidity and clearness of each inclusion compound solution were calculated from the absorbances thus obtained.

[2] = Absorbance at 620 nm and pH of solutions over time after stirring (Experimental Example 2); format: physicochemical; conditions: N=4; for pH: average; for absorbance at 620 nm: mean±S.E.
Experimental: The absorbance at wavelength 620 nm [OD(620 nm)] and pH of 0.4% dibucaine solution were determined using UV-visible recording spectrophotometer (UV-2100, Shimadzu Corporation). The solution was stirred, and OD (620 nm) and pH were determined at 5 min, 24 hr, 48 hr and 72 hr later.
OD (620 nm) and pH of the inclusion compound solution were determined in the same manner as above. The solution was stirred, and OD (620 nm) and pH were determined.
In the same manner as above, OD (620 nm) and pH of 1.0% tetracaine solution and an inclusion compound solution prepared by adding hydroxypropyl-β-cyclodextrin having an equimolar concentration to 1.0% tetracaine solution were determined. The solutions were stirred, and OD (620 nm) and pH were determined.
In the same manner as above, OD (620 nm) and pH of 0.5% bupivacaine solution and an inclusion compound solution prepared by adding α-cyclodextrin having an equimolar concentration to 0.5% bupivacaine solution were determined. The solutions were stirred, and OD (620 nm) and pH were determined.
The solutions were stirred, and OD (620 nm) and pH were determined.

[3] = tested on: abdominal giant nerve bundle of crayfish; test: Anesthetic concentration versus action potential disappearance and recovery time (Experimental Example 7); format: cell-based, crayfish (Procambarus clarkii)
Source text: A local anesthetic effect is known to be stronger in alkaline range where pH value is greater.
In addition, the relationship between dibucaine concentration and neuroaction potential recovery time was examined at pH 7.4.

[4] = in vivo; conditions: mouse, sc, 40 mg/kg
Experimental: (§1) While local anesthetics are known to show inhibitory action on the central nerve cells at high concentrations, they show stimulating action at low concentrations. […] That is, 0.5 %dibucaine dissolved in physiological saline was subcutaneously injected into the back of 11 mice by 0.3 ml (40 mg/kg body weight), which were compared with 11 mice that underwent subcutaneous injection of a solution containing 0.5% dibucaine and α-cyclodextrin having an equimolar concentration, by 0.3 ml (40 mg/kg body weight).

[5] = tested on: mice; test: in vivo; conditions: mouse, sc, 40 mg/kg
Experimental: as §1

Structure (SMILES)	OD (620 nm) [1]	clearness (%) [1] [%]	turbidity (%) [1] [%]	pH ([2]; 5 min later)	absorbance at 620 nm ([2]; 5 min later)	pH ([2]; 24 hr later)	absorbance at 620 nm ([2]; 24 hr later)	pH ([2]; 48 hr later)	absorbance at 620 nm ([2]; 48 hr later)	pH ([2]; 72 hr later)	absorbance at 620 nm ([2]; 72 hr later)	pH ([2]; initial)	absorbance at 620 nm ([2]; initial)	dibucaine concentration at which action potential disappeared and recovered ([3]; pH 7.4)	mortality [4] [%]	time to death from the injection [5]	action potential disappearance time (expression of anesthetic action) ([3]; 0.4% lidocaine, pH 7.5) [min]	action potential disappearance time (expression of anesthetic action) ([3]; 2% lidocaine, pH 6.5) [min]
CCCCOc1cc(C(=O)NCCN(CC)CC)c2ccccc2n1 [dibucaine]	2.015	0	100	6.85	1.528±0.087	6.76	1.456±0.079	6.73	1.385±0.042	6.75	1.412±0.054	6.19	0.000	0.008%-0.05%	91	about 20 min	–	–
CCCCN1CCCCC1C(=O)Nc1c(C)cccc1C (stereo not shown) [bupivacaine]	2.108	0	100	7.20	0.087±0.015	6.89	0.659±0.084	6.77	0.247±0.061	–	–	5.44	0.000	–	–	–	–	–
CCN(CC)CC(=O)Nc1c(C)cccc1C [lidocaine]	–	–	–	7.09	1.045±0.242	7.05	0.717±0.152	7.10	0.382±0.044	7.12	0.595±0.086	4.59	0.006	–	–	–	2	80
CCCCNc1ccc(C(=O)OCCN(C)C)cc1 [tetracaine]	2.732	0	100	7.12	0.517±0.024	7.04	0.411±0.024	7.05	0.386±0.015	7.05	0.301±0.025	5.49	0.000	–	–	–	–	–
